# Assay results reported in ChEMBL document CHEMBL1152786, “Designed DNA probes from the neocarzinostatin family: impact of glycosyl linkage stereochemistry on bulge base binding” (Bioorg Med Chem, 2009).
# Assays:
# [1] = Binding affinity to HT3AT sequence of bulge DNA by fluorescence quenching
# [2] = Binding affinity to DA12:BA14 sequence of bulge DNA by fluorescence quenching
# [3] = Binding affinity to HT3AGTT sequence of bulge DNA by fluorescence quenching
# [4] = Binding affinity to HT3AGT sequence of bulge DNA by fluorescence quenching
# [5] = Binding affinity to HT3AGCTT sequence of bulge DNA by fluorescence quenching
# [6] = Binding affinity to HT3AGTA sequence of bulge DNA by fluorescence quenching
# [7] = biological target: HT4AGTT bulged DNA; experiment: Binding affinity to HT4AGTT sequence of bulge DNA by fluorescence quenching
# [8] = biological target: Nucleic Acid; experiment: Binding affinity to DA12:DAc12 oligomer sequence of bulge DNA by fluorescence quenching; format: nucleic-acid assay
Compound,Kd [1] [nM],Kd [2] [nM],Kd [3] [nM],Kd [4] [nM],Kd [5] [nM],Kd [6] [nM],Kd [7] [nM],Kd [8] [nM]
CN[C@H]1[C@H](O[C@H]2c3cc4ccccc4cc3[C@H]3[C@@H]2C=C[C@]32C(=O)C=Cc3ccc(OC)cc32)O[C@H](C)[C@H](O)[C@@H]1O,8200,400,200,14000,1800,390,190,–
CN[C@H]1[C@H](O[C@@H]2c3cc4ccccc4cc3[C@@H]3[C@H]2C=C[C@@]32C(=O)C=Cc3ccc(OC)cc32)O[C@H](C)[C@H](O)[C@@H]1O,9200,430,1600,5500,1950,440,1500,–
CN[C@H]1[C@H](O[C@@H]2c3cc4c(cc3[C@@H]3[C@H]2OC(=O)[C@@]32C(=O)C=Cc3c(C)cc(OC)cc32)[C@@](O)([C@H]2COC(=O)O2)C=C4)O[C@@H](C)[C@H](O)[C@@H]1O,10000,2180,33,20600,710,12500,26,307000
CN[C@H]1[C@@H](O[C@@H]2c3cc4ccccc4cc3[C@@H]3[C@H]2C=C[C@@]32C(=O)C=Cc3ccc(OC)cc32)O[C@H](C)[C@H](O)[C@@H]1O,13000,800,130,4100,1700,1400,240,–
CN[C@H]1[C@@H](O[C@H]2c3cc4ccccc4cc3[C@H]3[C@@H]2C=C[C@]32C(=O)C=Cc3ccc(OC)cc32)O[C@H](C)[C@H](O)[C@@H]1O,10000,600,80,8400,2100,220,110,–
